According to patent US20240101957A1, “METHODS AND COMPOSITIONS FOR GENERATING EMBRYOS IN VITRO FROM PLURIPOTENT STEM CELLS” (California Institute of Technology, priority 2022, published 2024):
“Also recorded” adds a separate entry of the source.

B1: Activin-A: an agonist of SMAD2.3 signaling (protein, UniProt P08476 311-426, looked up)
Inhibin beta A chain: GLECDGKVNICCKKQFFVSFKDIGWNDWIIAPSGYHANYCEGECPSHIAGTSGSSLSFHSTVINHYRMRGHSPFANLKSCCVPTKLRPMSMLYYDDGQNIIKKDIQNMIVEECGCS
modifications: Inhibin beta A chain
notes: an agonist of SMAD2.3 signaling
B2: BMP4: bone morphogenic protein-4, TGFβ superfamily member (protein, UniProt P12644 293-408, looked up)
Bone morphogenetic protein 4: SPKHHSQRARKKNKNCRRHSLYVDFSDVGWNDWIVAPPGYQAFYCHGDCPFPLADHLNSTNHAIVQTLVNSVNSSIPKACCVPTELSAISMLYLDEYDKVVLKNYQEMVVEGCGCR

Legend:
Format in all cases: cell-based
[1] = tested on: inducible human embryoids; assay: Formation of organized inducible human embryoids with BMP inhibitor added between days 0-2; details: added between days 0-2 post-aggregation; vs untreated control
Description: (§1) To generate the three-dimensional stem cell-derived model of the post-implantation embryo, RSeT cells between 2 and 6 passages post-conversion to RSeT media were passaged as normal. The media for extraembryonic-like cells (induced GATA6, induced GATA6-SOX17 or induced GATA3-AP2γ) was changed to N2B27 with 5% Knockout Serum Replacement and 1 μg/mL DOX on the following day (Day −3). This media was refreshed every 24 hours for 3 days. On Day 0 (the day of aggregation), an Aggrewell dish (34415, STEMCELL Technologies) was prepared by pre-coating with anti-adherence solution (07010, STEMCELL Technologies) and centrifuging at 2000 g for 5 minutes. Wells were washed twice with PBS prior to the addition of experiment media. This media consisted of N2B27 with 5% knockout serum replacement, 1 μg/mL doxycycline, and 10 μM Y-27632. Induced cells and wildtype ESCs were enzymatically dissociated 1 hour after addition of 10 μM Y-27632 to wells containing cells for inducible human embryoid generation. Dissociated cells were pelleted and resuspended in experiment media and placed in gelatin-coated wells for MEF depletion. After 15-30 minutes, cells were counted, mixed, and plated into an Aggrewell dish with a final calculation of 8 wildtype-ESC, 8 hypoblast-like, and 16 trophoblast-like cells plated per microwell in the Aggrewell. […]

[2] = tested on: human embryo-like model; assay: Differentiation of the inner epiblast-like domain (SOX2, CDX2, AP2a immunofluorescence) in treated human embryo-like model; details: treated between 48- and 96-hours post-aggregation; Day 4 and Day 6; compared to untreated control or BMP4 treated structures
Description: as §1

[3] = tested on: human embryo-like model; assay: Number of SOX17/NANOG/AP2γ triple-positive primordial germ cell-like cells in treated embryoids; details: Day 4 embryoids; vs control
Description: as §1, with “Aggrewell. At 8 d.p.f., in vitro cultured human embryos had 32:24:228 epiblast:hypoblast:trophoblast cells. Importantly, however, many of the trophoblast cells were not in contact with the inner cell mass-derived tissues or were terminally differentiated. Additionally, inducible GATA6-SOX17 cells in culture proliferated slower than the other two cell populations after doxycycline addition. Therefore, an initial seeding density with: (1) a total cell number similar to that used in mouse models that allowed for successful cell sorting; (2) a ratio of cells that reflected the peri-implantation embryo; and (3) a reduced number of inducible GATA3-AP2γ cells and an increased number of inducible GATA6-SOX17 cells was utilized.” for “Aggrewell.”

| Molecule | formation of organized structures (embryoid formation) [1] | CDX2 and AP2a upregulation in the inner domain [2] | SOX2 expression in the inner domain [2] | number of primordial germ cell-like cells [3] |
| --- | --- | --- | --- | --- |
| c1ccc2c(-c3cnn4cc(-c5ccc(N6CCNCC6)cc5)cnc34)ccnc2c1 [LDN193189] | blocked formation of organized structures; also recorded: failing to form | lesser CDX2 and AP2a upregulation | increased maintenance of SOX2 expression | decreased |
| B1 |  |  |  | minimal effect |
| B2 |  |  |  | minimal effect |
